Results as given in patent US20210009630A1, “CYCLIC DINUCLEOTIDES AS STING AGONISTS” (Janssen Biotech, Inc., priority 2017, published 2021).
Like-named read-outs stand apart in the source and are kept apart here.

Key:
[1] = molecular target: T1, human STING (E. coli produced truncated STING protein) (Homo sapiens, UniProt Q86WV6, H232R); experiment: STING SPR binding assay; conditions: steady state affinity, 1:1 binding model, 25° C.
T1 construct: contains residues 139-379 of Q86WV6 with an R at position 232 (H232R); HIS tag (N, cleaved yes); made in house; host or cells: E. coli
T1 sequence (Q86WV6 139-379 H232R): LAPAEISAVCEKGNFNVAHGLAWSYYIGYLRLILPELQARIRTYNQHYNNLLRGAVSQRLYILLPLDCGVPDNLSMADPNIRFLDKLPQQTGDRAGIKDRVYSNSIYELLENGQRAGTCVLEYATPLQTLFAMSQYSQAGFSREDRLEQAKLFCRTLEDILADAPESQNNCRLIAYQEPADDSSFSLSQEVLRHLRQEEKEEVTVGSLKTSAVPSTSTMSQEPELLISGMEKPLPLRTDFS
Description: Compounds were analyzed on an S200 biacore SPR instrument (GE Healthcare). E. coli produced truncated STING protein was immobilized on a series S streptavidin chip via biotin capture (GE Healthcare #BR100531) with. […] Steady state affinity and kinetic evaluations were carried out using 1:1 binding model (STING was treated as a dimer). Run parameters were as follows: 60 sec on, 300 sec off for the IFM compounds, cyclic-di-GMP (60 sec on/60 sec off), thiol isomer 1 (60 sec on/300 sec off) and cGAMP (60 sec on/1200 sec off) with a flow rate of 50 μL/min and data collection at 40 Hz at 25° C.

[2] = molecular target: human STING (biotinylated STING protein, residues 139-379 of Q86WV6, H232R) (Homo sapiens, UniProt Q86WV6, H232R); experiment: STING SPA binding assay
Sequence of human STING (biotinylated STING protein, residues 139-379 of Q86WV6, H232R) (Q86WV6 139-379 H232R, one chain of several): as the sequence (Q86WV6 139-379 H232R) above
Description: The HIS tag is cleaved after purification and prior to biotinylation.
Test compounds (80 nL) were added with an acoustic dispenser (EDC Biosystems) in 100% DMSO for a final assay concentration of 1% DMSO. Plates were centrifuged for 1 min and incubated for 60 min at room temperature. […] Plates were dark adapted for 2 h and read on a ViewLux (Perkin Elmer) for 12 min per plate.

[3] = test system: human STING pathway (THP1-ISG cells); experiment: STING human cell reporter assay; type: cell-based; conditions: IRF-inducible SEAP reporter, 24 h, means of at least three values
Description: Agonism of the human STING pathway is assessed in THP1-ISG cells (Invivogen, cat #thp-isg) derived from human THP1 monocyte cell line by stable integration of an interferon regulatory factor (IRF)-inducible SEAP reporter construct. THP1-Blue ISG cells express a secreted embryonic alkaline phosphatase (SEAP) reporter gene under the control of an ISG54 minimal promoter in conjunction with five interferon (IFN)-stimulated response elements. As a result, THP1-Blue ISG cells allow the monitoring of IRF activation by determining the activity of SEAP. The levels of IRF-induced SEAP in the cell culture supernatant are readily assessed with alkaline phosphatase detection medium, a SEAP detection reagent. These cells are resistant to Zeocin. 2′3′cGAMP was used as a positive control in this assay. To run the assay, 60,000 cells were dispensed in 30 μL/well of a white, opaque bottom tissue culture treated 384-well plate.
Test compounds were added in a volume of 10 μL (1% DMSO final concentration). Compounds are initially prepared in 100% DMSO, spotted on an compound dilution plate and then diluted in media prior to transfer. The assay was incubated for 24 h at 37° C., 5% CO2 then plates were centrifuged at 1200 rpm (120×g) for 5 min. After final incubation, 90 μL of alkaline phosphatase detection medium-substrate was added to each well of a new 384-well clear plate and 10 μL of the cell supernatant was transferred from the assay plate to the new alkaline phosphatase detection medium-plate using a Biomek FX and mixed 4 times. Plates were incubated at RT for 20 min then absorbance at 655 nm was determined on the Tecan Safire2.

[4] = test system: THP1-Blue ISG cells (IFN-β secretion); experiment: Human interferon-β induction assay; type: cell-based; conditions: total cumulative IFN-β induction over the dose range tested (0.78 to 50 uM) in THP-1 cells after a 24 hour exposure
Description: THP1-Blue ISG cells are used to measure the secretion of IFN-β into the culture supernatant following STING pathway activation. To run the assay, anti-IFN-β capture antibodies were coated on […] well MultiArray plates (Mesoscale Discovery). After a one hour incubation, plates were washed and 50 μL supernatant from the STING human cell reporter assay plates or IFN-β standards were mixed with 20 μL Sulfotag-conjugated detection antibody in the coated plates. Plates were incubated, shaking for 2 h, washed, and read buffer was applied. Electrochemiluminescence was measured on the SectorImager.

[5] = read-out: hSTING SPA IC50, displacement of [3H]-2′3′-cGAMP from biotin-STING, means of at least three values

Row | SMILES | Kd [1] [nM] | IC50 [2] [nM] | EC50 ([3]; Homo sapiens) [nM] | human IFN-β (ranking value) [4] [pg/mL] | IC50 [2, 5] [nM] | EC50 [3] [nM]
1 | CO[C@H]1[C@H]2OP(=O)(O)OC[C@H]3O[C@@H](n4cnc5c(N)ncnc54)C[C@@H]3NS(=O)(=O)OC[C@H]1O[C@H]2n1cnc2c(=O)[nH]c(N)nc21 [Compound 20] | 8.2 | 47 | ~220 | 6045 | – | –
2 | CO[C@H]1[C@H]2OS(=O)(=O)NC[C@H]3O[C@@H](n4cnc5c(N)ncnc54)C[C@@H]3OP(=O)(O)OC[C@H]1O[C@H]2n1cnc2c(=O)[nH]c(N)nc21 [Compound 12] | – | 220 | 140 | – | – | –
3 | CO[C@H]1[C@H]2OS(=O)(=O)NC[C@H]3O[C@@H](n4cnc5c(N)ncnc54)C[C@@H]3OP(=O)(O)OC[C@H]1O[C@H]2n1cnc2c(=O)[nH]cnc21 [Compound 40] | – | 66 | 38 | – | – | –
4 | CO[C@H]1[C@H]2OS(=O)(=O)NC[C@H]3O[C@@H](n4cnc5c(N)ncnc54)[C@@H](F)[C@@H]3O[P@](=O)(O)OC[C@H]1O[C@H]2n1cnc2c(=O)[nH]c(N)nc21 [Compound 28] | – | 190 | 99 | 12969 | – | –
5 | CO[C@H]1[C@H]2OS(=O)(=O)NC[C@H]3O[C@@H](n4cnc5c(N)ncnc54)[C@H](F)[C@@H]3OP(=O)(O)OC[C@H]1O[C@H]2n1cc(F)c2c(=O)n(C)cnc21 [Compound 55] | – | 220 | – | 25628 | – | –
6 | Nc1ncnc2c1ncn2[C@@H]1O[C@@H]2CNS(=O)(=O)O[C@@H]3[C@H](O)[C@@H](COP(=O)(O)O[C@H]2[C@H]1O)O[C@H]3n1cnc2c(N)ncnc21 [Compound 30] | – | > 100000 | 13000 | – | – | –
7 | Nc1ncnc2c1ncn2[C@@H]1O[C@@H]2COP(=O)(O)O[C@@H]3[C@H](F)[C@@H](CNS(=O)(=O)O[C@H]2[C@H]1F)O[C@H]3n1cnc2c(N)ncnc21 [Compound 35] | – | > 100000 | 7080 | – | – | –
8 | Nc1nc2c(ncn2[C@@H]2O[C@@H]3COP(=O)(O)O[C@H]4[C@@H](O)[C@H](n5cnc6c(=O)[nH]c(N)nc65)O[C@@H]4COP(=O)(O)O[C@H]3[C@H]2O)c(=O)[nH]1 [3′,3′cGMP, reference compound] | 3970 | – | – | – | 8620 | 8700
9 | Nc1ncnc2c1ncn2C1O[C@@H]2CNS(=O)(=O)O[C@H]3C(n4cnc5c(N)ncnc54)O[C@H](COP(=O)(O)O[C@H]2[C@H]1F)[C@H]3O (stereo partly drawn) [Compound 17] | 5140 | 21600 | 250 | 17298 | – | –
10 | CO[C@H]1[C@H]2OP(=O)(O)OC[C@H]3O[C@@H](n4cnc5c(=O)[nH]cnc54)[C@H](F)[C@@H]3OS(=O)(=O)NC[C@H]1O[C@H]2n1cnc2c(=O)[nH]c(N)nc21 [Compound 53] | – | 4010 | – | 11036 | – | –
11 | Nc1nc2c(nnn2[C@@H]2O[C@@H]3CNS(=O)(=O)O[C@H]4[C@@H](F)[C@H](n5cnc6c(N)ncnc65)O[C@@H]4COP(=O)(O)O[C@@H]2C3)c(=O)[nH]1 [Compound 37] | – | 12400 | 1350 | – | – | –
12 | CO[C@H]1[C@H]2OS(=O)(=O)NC[C@]34CO[C@H](C3OP(=O)(O)OC[C@H]1O[C@H]2n1cnc2c(=O)[nH]c(N)nc21)[C@H](n1cnc2c(N)ncnc21)O4 (stereo partly drawn) [Compound 9] | 280 | 2790 | 110 | 8104 | – | –
13 | Nc1ncnc2c1ncn2[C@@H]1O[C@@H]2CNS(=O)(=O)O[C@@H]3[C@H](F)[C@@H](COP(=O)(O)O[C@H]2[C@H]1F)O[C@H]3n1cnc2c(=O)[nH]cnc21 [Compound 39] | – | 21 | 65 | – | – | –
14 | Nc1ncnc2c1ncn2[C@@H]1O[C@@H]2COP(=O)(O)O[C@H]3[C@@H](O)[C@H](n4cnc5c(N)ncnc54)O[C@@H]3COP(=O)(O)O[C@H]2[C@H]1O [3′,3′cAMP, reference compound] | 5990 | – | – | 539 | 73100 | 17800
15 | Nc1nc2c(ncn2C2O[C@@H]3COP(=O)(O)O[C@H]4C[C@H](n5cnc6c(N)ncnc65)OC4CNS(=O)(=O)O[C@@H]2[C@@H]3O)c(=O)[nH]1 (stereo partly drawn) [Compound 18] | – | 1140 | 110 | 15249 | – | –
16 | Nc1nc2c(nnn2[C@@H]2O[C@@H]3COP(=O)(O)O[C@H]4[C@@H](F)[C@H](n5cnc6c(N)ncnc65)O[C@@H]4CNS(=O)(=O)O[C@@H]2C3)c(=O)[nH]1 [Compound 15] | – | 360 | 43 | 15611 | – | –
17 | Nc1nc2c(ncn2[C@@H]2O[C@@H]3COP(=O)(O)O[C@H]4[C@@H](O)[C@H](n5cnc6c(N)ncnc65)O[C@@H]4COP(=O)(O)O[C@@H]2[C@@H]3O)c(=O)[nH]1 [c-GAMP, (2′,3′)cyclic guanosine monophosphate-adenosine monophosphate, reference compound] | – | – | – | – | – | 530
18 | Nc1ncnc2c1ncn2C1O[C@@H]2COP(=O)(O)O[C@@H]3[C@H](O)C(CNS(=O)(=O)O[C@H]2[C@H]1F)O[C@H]3n1cnc2c(N)ncnc21 (stereo partly drawn) [Compound 41] | – | > 100000 | 22500 | – | – | –
19 | CO[C@H]1[C@H]2OS(=O)(=O)NC[C@H]3O[C@@H](n4cnc5c(N)ncnc54)[C@H](F)[C@@H]3OP(=O)(O)OC[C@H]1O[C@H]2n1cc(F)c2c(=O)[nH]cnc21 [Compound 54] | – | 750 | – | 18578 | – | –
20 | Nc1nc2c(ncn2[C@@H]2O[C@@H]3COP(=O)(O)O[C@H]4[C@@H](F)[C@H](n5cnc6c(N)ncnc65)O[C@@H]4CNS(=O)(=O)O[C@@H]2[C@@H]3O)c(=O)[nH]1 [Compound 11] | 6.5 | 15 | 30 | 14896 | – | –
21 | Nc1nc2c(ncn2C2OC3CNS(=O)(=O)OC4C(COP(=O)(O)OC2C3)OC(n2cnc3c(N)ncnc32)C4F)c(=O)[nH]1 (stereo not drawn) [Compound 26] | – | 28400 | 1020 | – | – | –
22 | CO[C@H]1[C@H]2OP(=O)(O)OC[C@H]3OC(n4cnc5c(N)ncnc54)[C@H](F)[C@@H]3OS(=O)(=O)NC[C@H]1O[C@H]2n1cnc2c(=O)[nH]c(N)nc21 (stereo partly drawn) [Compound 22] | – | 92 | 26 | – | – | –
23 | COC1C2COP(=O)(O)OC3C(CNS(=O)(=O)OC1C(n1nnc4c(=O)[nH]c(N)nc41)O2)OC(n1cnc2c(N)ncnc21)C3F (stereo not drawn) [Compound 51] | – | 11 | – | – | – | –
24 | CO[C@H]1[C@H]2OP(=O)(O)OC[C@H]3OC(n4cnc5c(N)ncnc54)C[C@@H]3OS(=O)(=O)NC[C@H]1O[C@H]2n1cnc2c(=O)[nH]c(N)nc21 (stereo partly drawn) [Compound 24] | – | 5000 | 11 | 11534 | – | –
25 | Nc1nc2c(ncn2[C@@H]2O[C@@H]3CNS(=O)(=O)OC4[C@@H](F)[C@H](n5cnc6c(N)ncnc65)O[C@@H]4COP(=O)(O)O[C@@H]2[C@@H]3O)c(=O)[nH]1 (stereo partly drawn) [Compound 47] | – | 1300 | ~39 | – | – | –
26 | CO[C@H]1[C@H]2OP(=O)(O)OC[C@H]3O[C@@H](n4cnc5c(N)ncnc54)[C@H](F)[C@@H]3NS(=O)(=O)OC[C@H]1O[C@H]2n1cnc2c(=O)[nH]c(N)nc21 [Compound 6] | 1.2 | 11 | 990 | 6762 | – | –
27 | Nc1ncnc2c1ncn2[C@@H]1O[C@@H]2COP(=O)(O)O[C@H]3C[C@H](n4cnc5c(N)ncnc54)O[C@@H]3CNS(=O)(=O)O[C@@H]1[C@@H]2F [Compound 36] | – | > 100000 | 2460 | – | – | –
